Measurements taken from US9055743B2, “Alpha, beta-unsaturated imines” (BAYER INTELLECTUAL PROPERTY GMBH, priority 2010, dated 2015).

How the values were obtained:
Type in all cases: in vivo
[1] = tested on: larvae of the mustard beetle (Phaedon cochleariae); experiment: Phaedon test (PHAECO spray treatment); conditions: 500 g/ha, spray, after 7 days; for pest or weed control at 500 g/ha: Phaedon cochleariae, 168 h, read-out: activity (beetle larvae killed)
Method in brief: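 Chinese cabbage leaf discs sprayed with compound formulated in acetone/dimethylformamide with alkylaryl polyglycol ether emulsifier, diluted in emulsifier-containing water to the desired concentration. After drying, discs were populated with mustard beetle larvae.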

[2] = tested on: Anopheles gambiae (homocygus kdr); experiment: Anopheles test (ANPHGB surface treatment); conditions: for knock-down activity: 100 mg/m^2, two hours after contact, exposition 30 minutes; for mortality at 100 mg/m2: Anopheles gambiae, read-out: activity (mortality in %); for Kill rate in % after 24 hours: active compound concentration 1.6 g/ha
Method in brief: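 Compound dissolved in acetone at 2 mg/ml, pipetted onto glazed tile and dried; adult kdr-homozygous mosquitoes exposed on the tile for 30 min. Knock-down (%) read 2 h and mortality (%) 24 h after contact.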

[3] = tested on: brown dog ticks (Rhipicephalus sanguineus, fully sensitive laboratory strain); experiment: Contact test against ticks in vitro (RHIPSA contact); conditions: active compound concentration 4 g/ha
Procedure: Contact Test Against Ticks In Vitro (RHIPSA Contact)
An amount of 0.9 mg of active compound is weighed out, and 1 ml of acetone is added.
Of this acetone solution, either 250 μl are transferred directly into roll-necked test tubes or an aliquot is diluted with 4 parts of acetone 1:5. For its part, 250 μl of this dilution are pipetted into roll-necked test tubes, or the dilution is diluted further, etc., until the desired number of dilution steps is reached.
The roll-necked test tubes containing the solution of the active compound in acetone are immediately coated in a fume cupboard by 2 h of swing rotation at 30 rpm. After evaporation of the solvent, the active compound contained in the acetone gives, at the highest concentration tested, an active compound content of 500 g/ha (or […]) on the surface of the test tube.
5-10 Adult brown dog ticks (Rhipicephalus sanguineus, fully sensitive laboratory strain) are transferred into the test tubes prepared in this manner, and the test tubes are closed with a plastic roll-necked lid provided with fine holes.
The test tubes are stored vertically at room temperature and humidity for 24 or 48 h in the dark. After 24 and 48 h, the activity of the active compound applied is determined by comparison with an acetone-treated control. […]

Musca domestica = Musca domestica test (MUSCDO); conditions: 100 ppm, after 2 days
Procedure: Musca domestica Test (MUSCDO)
Solvent: Dimethyl Sulphoxide
To produce a suitable preparation of active compound, 10 mg of active compound are mixed with 0.5 ml of dimethyl sulphoxide and the concentrate is diluted with water to the desired concentration. Vessels containing a sponge treated with the active compound preparation of the desired concentration are populated with adult Musca domestica.
After 2 days, the kill in % is determined 100% means that all flies have been killed; 0% means that none of the flies have been killed.

[4] = tested on: Boophilus microplus strain Parkhurst, SP-resistant; experiment: Boophilus microplus test (DIP); conditions: 100 ppm, after 7 days
Procedure: Boophilus microplus Test (DIP) Test Animals: Adult Fat Females of the Boophilus microplus Strain Parkhurst—SP-Resistant) Solvent: Dimethyl Sulphoxide
10 mg of active compound are dissolved in 0.5 ml of dimethyl sulphoxide. To produce a suitable formulation, the active compound solution is diluted with water to the particular desired concentration.
This active compound preparation is pipetted into tubes. 8-10 ticks are transferred into a further tube provided with holes. The tube is dipped into the active compound preparation, with all the ticks being wetted completely. After the liquid has run off, the ticks are transferred to filter discs in plastic dishes and kept in a climatized room. After 7 days, the activity is checked for deposition of fertile eggs. Eggs whose fertility is not visible from the outside are kept in glass tubes in a climatized cupboard until the larvae have hatched. An activity of 100% means that no tick has laid fertile eggs.

[5] = tested on: bed bugs of the species Cimex lectularius; experiment: whole plant or invertebrate; conditions: for mortality at 100 mg/m2: Cimex lectularius, read-out: activity (mortality in %)
Procedure: Cimex Test (CIMXLE Surface Treatment)
To produce a suitable preparation of the active compound, the active compound is dissolved in acetone (2 mg/ml). The active compound preparation is pipetted onto a glazed tile and, after drying, adult bed bugs of the species Cimex lectularius are placed onto the treated tile. The exposition time is 30 minutes.
Two hours after contact to the treated surface, the knock-down proportion of the test animals in % is determined
24 hours after contact to the treated surface, the mortality in % is determined. Here, 100% means that all bed bugs have been killed; 0% means that none of the bed bugs have been killed.

| Compound | pest or weed control at 500 g/ha [1] | knock-down activity [2] | mortality at 100 mg/m2 [2] | Kill rate in % after 24 hours [2] | Kill rate in % after 2 days [3] | activity (beetle larvae killed) [1] | activity (kill in %) (Musca domestica) | activity (100% = no tick has laid fertile eggs) [4] | mortality at 100 mg/m2 [5] | knock-down activity ([5]; 100 mg/m^2, two hours after contact, exposition 30 minutes) |
| --- | --- | --- | --- | --- | --- | --- | --- | --- | --- | --- |
| Cc1ccc(N=C2C(=CSc3ccc(F)cc3)CSc3ccccc32)cc1 [Example 1-35] | 100% | 100% | 100% | 100% | 100% | – | – | – | – | – |
| Cc1ccc(N=C2C(=CSc3ccc(C)cc3)CCc3ccccc32)cc1 [Example 1-28] | – | 100% | – | – | – | 100% | 80% | 100% | – | – |
| Cc1ccc(N=C2C(=CSc3ccc(F)cc3)CCc3cc(F)ccc32)cc1 [Example 1-16] | 100% | 100% | 100% | 80% | – | – | 80% | 100% | 90% | – |
| Cc1ccc(N=C2C(=CSc3ccc(F)cc3)CCc3ccccc32)cc1 [Example 1-9] | 100% | 100% | 100% | 100% | – | – | 90% | – | 100% | 80% |
| Cc1ccc(N=C2C(=CSc3ccc(F)cc3)C(C)c3ccccc32)cc1 (stereo not shown) [Example 1-57] | 100% | 80% | 100% | 100% | – | – | 85% | – | – | – |
